In patent US20230346961A1, “GLP-1 AND GIP RECEPTOR CO-AGONISTS” (Novo Nordisk A/S, priority 2020, published 2023):
Starred links: 1 amine or outer side, 2 acyl side, 3 side chain; linkers in the order of their positions; H or OH if unused. Non-standard residues stand in square brackets, D forms with d. Residues, ends and D or L forms follow the SMILES beside them. Groups on a side chain read outwards from the residue. *: point of attachment. C20 diacid = O=C(O)CCCCCCCCCCCCCCCCCCC(=O)*; γGlu = O=C(O)[C@H](CCC(=O)[*:2])N[*:1]; εLys = N[C@@H](CCCCN[*:1])C(=O)[*:2]; Aib = CC(C)(N)C(=O)O

How the values were obtained:
[1] = tested on: diet-induced obese (DIO) mice; experiment: Pharmacodynamic study in DIO mice: IPGTT (intraperitoneal glucose tolerance test); type: in vivo, C57BL/6J male mice; conditions: 14 days, glucose 2 g/kg i.p., mean ± SEM
Protocol: On the day of the glucose tolerance test, animals were fasted for 4 h. Food was removed and animals were transferred to fresh cages. Animals had access to water but not to food. Tail blood glucose levels were measured, and mice were injected (t=0) with an intra-peritoneal (i.p.) glucose load of 2 g/kg (200 mg/ml glucose solution, dose volume 10 ml/kg). Tail blood glucose levels were measured at times 0, 15, 30, 60, 90, 120 minutes following the i.p. glucose load. Stratification of the animals during the IPGTT was such that for example two mice from group 1 are dosed followed by two mice from group 2, 3, 4, before the next two mice from group 1, 2, 3 etc. were handled. This was to allow for equal distribution of “time of day” throughout all groups.

[2] = tested on: diet-induced obese (DIO) mice; experiment: Pharmacodynamic study in DIO mice: body weight and food intake; type: in vivo, C57BL/6J male mice; conditions: DIO mice, mean ± SEM; for Absolute BW Day 0: baseline Day 0 (14-day study); for Absolute BW Day 14 / Change in BW Day 14 / Cumulative food intake Day 14: 14 days; for Cumulative food intake Day 14: n = 2-3
Protocol: The purpose of this example is to assess the in vivo effect of select compounds on pharmacodynamic parameters in diet-induced obese (DIO) mice. The animals were treated once daily via subcutaneous injection with a liquid formulation of the test compound to assess effects on body weight, foot intake, and glucose tolerance. For comparison, the known GLP-1R/GIPR co-agonist tirzepatide and a surrogate of the GLP-1R agonist semaglutide were used as references. The semaglutide surrogate has the same pharmacological properties of semaglutide but a slightly modified structure in which the γGlu element of the substituent has been changed from the L-isomer to the D-isomer.
C57BL/6J male mice were purchased from Jackson Laboratories at approximately 8 weeks of age. Mice were group housed and fed a high-fat, high-sugar diet from Research Diets (D12331). Mice were maintained on this diet for 12 weeks prior to initializing the pharmacology studies. Mice exceeding a measured body weight of 50 grams were considered diet-induced obese (DIO) and included in pharmacology studies. Mice were exposed to a controlled 12 h:12 h light:dark cycle at ambient room temperature (22° C.) with ab libitum access to food and water. Studies were approved by and performed according to the guidelines of the Institutional Animal Care and Use Committee of the University of Cincinnati.
Animals were dosed once daily, subcutaneously with either vehicle or test compound. All injections occurred during the middle of the light phase at a fixed volume of 2-5 microliters per gram body weight.
All compounds in the study were formulated in the following buffer: 50 mM phosphate; 70 mM sodium chloride; 0.05% Tween-80, pH 7.4. Dosing solutions were formulated in glass vials and stored at 2-8° C. Dosing solutions were brought to room temperature before dosing and returned to 2-8° C. after dosing.
DIO mice were distributed into groups (n=8 per group) such that statistical variations in the mean and standard deviations of fat mass and body weight were minimized between groups. The animals were grouped to receive treatment as follows: Vehicle, tirzepatide, semaglutide surrogate or a GLP-1/GIP receptor co-agonists as described herein, where vehicle is 50 mM phosphate, 70 mM sodium chloride; 0.05% Tween-80, pH 7.4. The test compounds were dissolved in the vehicle, to stock concentrations of 100 μM, then diluted 50-200 fold in the vehicle to achieve the desired dosing solution concentrations. Animals were dosed subcutaneously once daily in the morning for each day of treatment with dosing solution at a volume of 2-5 μL per gram of body weight as necessary to achieve the desired dose (eg 0.3 nmol/kg, 1.0 nmol/kg, or 3.0 nmol/kg).
Body weight (BW) and food intake were measured immediately prior to dosing each day. The percent change in body was calculated individually for each mouse based on initial body weight prior to the first injection.

[3] = biological target: T1, mouse GLP-1 receptor (Mus musculus, UniProt O35659)
T1 sequence (O35659 22-463): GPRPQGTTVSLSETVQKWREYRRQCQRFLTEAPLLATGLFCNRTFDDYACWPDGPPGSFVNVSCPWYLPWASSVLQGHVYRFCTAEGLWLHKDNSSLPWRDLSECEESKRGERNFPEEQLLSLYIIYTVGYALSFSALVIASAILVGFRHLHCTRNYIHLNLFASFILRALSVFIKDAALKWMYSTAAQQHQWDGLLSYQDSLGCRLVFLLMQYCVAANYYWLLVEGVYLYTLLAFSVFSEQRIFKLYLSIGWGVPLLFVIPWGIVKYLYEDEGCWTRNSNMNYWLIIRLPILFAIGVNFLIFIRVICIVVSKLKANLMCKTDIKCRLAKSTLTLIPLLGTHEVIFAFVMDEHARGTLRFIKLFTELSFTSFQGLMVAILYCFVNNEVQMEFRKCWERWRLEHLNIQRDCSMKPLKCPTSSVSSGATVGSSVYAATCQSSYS

[4] = Pharmacokinetic study in minipigs (terminal half-life after i.v. administration); type: in vivo; conditions: female, Göttingen, minipig, plasma, iv; minipigs, i.v. administration, harmonic mean; read-out: Terminal half-life t1/2 (converted)
Protocol: The purpose of this example is to determine the half-life in vivo of the derivatives of the present invention after i.v. administration to minipigs, i.e. the prolongation of their time in the body and thereby their time of action. This is done in a pharmacokinetic (PK) study, where the terminal half-life of the derivative in question is determined. By terminal half-life is generally meant the period of time it takes to […] certain plasma concentration, measured after the initial distribution phase. Female Göttingen minipigs were obtained from Ellegaard Göttingen Minipigs (Dalmose, Denmark) approximately 7-14 months of age and weighing from approximately 16-35 kg were used in the studies. The minipigs were housed individually and fed restrictedly once daily with SDS minipig diet (Special Diets Services, Essex, UK). After at 3 weeks of acclimatisation two permanent central venous catheters were implanted in vena cava caudalis in each animal. The animals were allowed 1 week recovery after the surgery, and were then used for repeated pharmacokinetic studies with a suitable wash-out period between successive derivative dosing. The animals were fasted for approximately 18 hours before dosing and from 0 to 4 hours after dosing, but had adlibitum access to water during the whole period. […] Blood samples (for example 0.8 mL) were collected in 8 mM EDTA buffer and then centrifuged at 4° C. and 1942 g for 10 minutes. Plasma was pipetted into Micronic tubes on dry ice and kept at -20° C. until analysed for plasma concentration of the compounds using ELISA, or a similar antibody-based assay, or LCMS. […] (Pharsight Inc., Mountain View, CA, USA), and the resulting terminal half-lives (harmonic mean) determined.

[5] = biological target: human glucagon receptor (Homo sapiens, UniProt P47871); experiment: cell-based
[6] = biological target: human GLP-1 receptor (Homo sapiens, UniProt P43220); experiment: cell-based; conditions: hGLP-1R
Protocol: The in vitro functional potency is the measure of target receptor activation in a whole cell assay.
In vitro functional potency was determined by measuring the response of the target receptor in a reporter gene assay in individual cell lines. […] When the respective receptor is activated, it results in the production of cAMP, which in turn results in expression of the luciferase protein. When assay incubation is completed, luciferase substrate (luciferin) is added resulting in the enzymatic conversion of luciferin to oxyluciferin and producing bioluminescence. The luminescence is measured as the readout for the assay.
The cells lines used in these assays were BHK cells with BHKTS13 as a parent cell line. The cell lines were derived from a clone containing the CRE luciferase element and were established by further transfection with the respective receptor to obtain the relevant cell line.
The cells were cultured at 37° C. with 5% CO2 in Cell Culture Medium. They were aliquoted and stored in liquid nitrogen. The cells were kept in continuous culture and were seeded out the day before each assay.
GLP-1R and GcgR Cell Culture Medium consisted of DMEM medium with 10% FBS, 500 μg/mL G418, and 300 μg/mL hygromycin. GIPR Cell Culture Medium consisted of DMEM medium with 10% FBS, 400 μg/mL G418, and 300 μg/mL hygromycin. Assay Buffer consisted of DMEM w/o phenol red, 10 mM Hepes, 1×Glutamax, 1% ovalbumin, and 0.1% Pluronic F-68 with the addition of HSA at twice the final assay concentration.
• 1) Cells were plated at 5000 cells/well and incubated overnight in the assay plate. • 2) Cells were washed once in DPBS. • 3) Stocks of the test compounds and reference compounds in concentrations ranging from 100-300 μM were diluted 1:150 in Assay Buffer. Compounds were then diluted 1:10 in column 1 of a 96 deep well dilution plate and then carried across the row creating a 3.5 fold, 12 point dilution curve. • 4) Assay Buffer (50 μl aliquot) with or without HSA was added to each well in the assay plate. • 5) A 50 μl aliquot of compound or blank was transferred from the dilution plate to the assay plate containing the Assay Buffer with or without HSA. • 6) The assay plate was incubated for 3 h in a 5% CO2 incubator at 37° C. 7) The cells were washed once with DPBS. • 8) A 100 μl aliquot of DPBS was added to each well of the assay plate. • 9) A 100 μl aliquot of steadylite plus reagent (light sensitive) was added to each well of the assay plate. • 10) Each assay plate was covered with aluminum foil to protect it from light and shaken at 250 RPM for 30 min at room temperature. • 11) Each assay plate was read in a microtiter plate reader.
The data from the microtiter plate reader was first regressed in an Excel in order to calculate the x-axis, log scale concentrations based on the individual test compound's stock concentration and the dilutions of the assay. […] The software performs a non-linear regression (log(agonist) vs response). A minimum of two replicates was measured for each sample. The reported values are averages of the replicates.

[7] = biological target: T2, mouse GIP receptor (Mus musculus, UniProt Q0P543); experiment: cell-based
T2 sequence (Q0P543 19-460): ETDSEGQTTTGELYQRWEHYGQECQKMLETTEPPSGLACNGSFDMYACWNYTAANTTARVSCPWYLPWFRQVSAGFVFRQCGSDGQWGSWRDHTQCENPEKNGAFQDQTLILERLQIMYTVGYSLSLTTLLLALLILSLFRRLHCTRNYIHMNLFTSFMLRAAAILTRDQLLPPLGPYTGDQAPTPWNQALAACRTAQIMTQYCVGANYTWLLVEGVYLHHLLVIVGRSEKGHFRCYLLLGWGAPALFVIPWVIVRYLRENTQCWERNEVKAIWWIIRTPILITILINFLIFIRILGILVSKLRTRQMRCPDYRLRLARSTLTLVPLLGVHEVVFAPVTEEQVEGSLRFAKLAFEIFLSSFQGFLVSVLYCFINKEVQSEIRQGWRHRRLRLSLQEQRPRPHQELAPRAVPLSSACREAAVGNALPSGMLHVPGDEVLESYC

Chain of human GLP-1 receptor (P43220 24-463): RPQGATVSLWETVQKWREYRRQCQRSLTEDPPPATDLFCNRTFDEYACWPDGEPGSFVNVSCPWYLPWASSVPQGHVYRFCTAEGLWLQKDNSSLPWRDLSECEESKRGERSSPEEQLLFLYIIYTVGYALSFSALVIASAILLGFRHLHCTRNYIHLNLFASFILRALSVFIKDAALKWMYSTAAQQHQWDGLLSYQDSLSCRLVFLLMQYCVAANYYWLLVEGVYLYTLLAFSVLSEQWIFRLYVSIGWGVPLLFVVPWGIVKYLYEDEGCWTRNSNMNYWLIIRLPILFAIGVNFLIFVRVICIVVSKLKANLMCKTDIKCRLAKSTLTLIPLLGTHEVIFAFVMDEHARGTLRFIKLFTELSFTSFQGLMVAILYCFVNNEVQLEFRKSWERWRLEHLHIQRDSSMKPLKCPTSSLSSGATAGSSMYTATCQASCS
Chain of human glucagon receptor (P47871 26-477): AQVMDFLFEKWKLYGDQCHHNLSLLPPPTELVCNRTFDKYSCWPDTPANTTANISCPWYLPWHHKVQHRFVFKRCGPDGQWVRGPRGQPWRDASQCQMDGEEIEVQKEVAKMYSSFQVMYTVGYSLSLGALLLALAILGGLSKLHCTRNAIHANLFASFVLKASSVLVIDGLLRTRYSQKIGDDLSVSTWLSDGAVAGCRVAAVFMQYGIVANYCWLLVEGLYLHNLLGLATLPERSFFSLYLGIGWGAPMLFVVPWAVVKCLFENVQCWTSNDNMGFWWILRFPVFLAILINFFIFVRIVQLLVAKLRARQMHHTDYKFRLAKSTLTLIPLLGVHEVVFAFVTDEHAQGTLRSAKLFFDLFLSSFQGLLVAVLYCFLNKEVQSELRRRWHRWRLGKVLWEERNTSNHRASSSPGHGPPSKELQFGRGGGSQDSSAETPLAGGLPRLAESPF

Compound: Tirzepatide: known GLP-1R/GIPR co-agonist used as reference [reference compound]
- iAUC, IPGTT Day 15 ([1]; 0.3 nmol/kg s.c. once daily): 13005 ± 2962 mg·min/dL
- iAUC, IPGTT Day 15 ([1]; 1.0 nmol/kg s.c. once daily): 10365 ± 3585 mg·min/dL
- iAUC, IPGTT Day 15 ([1]; 3.0 nmol/kg s.c. once daily): 8974 ± 1804 mg·min/dL
- Absolute BW Day 0 ([2]; 0.3 nmol/kg group): 64.1 ± 1.7 grams
- Absolute BW Day 14 ([2]; 0.3 nmol/kg s.c. once daily): 58.2 ± 1.9 grams
- Change in BW Day 14 ([2]; 0.3 nmol/kg s.c. once daily): −9.4 ± 1.2%
- Cumulative food intake Day 14 ([2]; 0.3 nmol/kg s.c. once daily): 32.3 ± 1.9 grams
- Absolute BW Day 0 ([2]; 1.0 nmol/kg group): 63.5 ± 1.6 grams
- Absolute BW Day 14 ([2]; 1.0 nmol/kg s.c. once daily): 49.8 ± 1.8 grams
- Change in BW Day 14 ([2]; 1.0 nmol/kg s.c. once daily): −21.0 ± 1.2%
- Cumulative food intake Day 14 ([2]; 1.0 nmol/kg s.c. once daily): 18.4 ± 0.7 grams
- Absolute BW Day 0 ([2]; 3.0 nmol/kg group): 63.6 ± 2.5 grams
- Absolute BW Day 14 ([2]; 3.0 nmol/kg s.c. once daily): 45.1 ± 2.1 grams
- Change in BW Day 14 ([2]; 3.0 nmol/kg s.c. once daily): −29.0 ± 2.4%
- Cumulative food intake Day 14 ([2]; 3.0 nmol/kg s.c. once daily): 16.4 ± 2.3 grams

Compound: CC[C@H](C)[C@H](NC(=O)[C@H](CO)NC(=O)[C@H](Cc1ccc(O)cc1)NC(=O)[C@H](CC(=O)O)NC(=O)[C@H](CO)NC(=O)[C@@H](NC(=O)[C@H](Cc1ccccc1)NC(=O)[C@@H](NC(=O)CNC(=O)[C@H](CCC(=O)O)NC(=O)C(C)(C)NC(=O)[C@@H](N)Cc1ccc(O)cc1)[C@@H](C)O)[C@@H](C)O)C(=O)N[C@@H](Cc1ccc(O)cc1)C(=O)N[C@@H](CC(C)C)C(=O)N[C@@H](CCC(=O)O)C(=O)N[C@@H](CCCCNC(=O)[C@@H](N)CCCCNC(=O)[C@@H](N)CCCCNC(=O)CC[C@H](NC(=O)CCCCCCCCCCCCCCCCCCC(=O)O)C(=O)O)C(=O)N[C@@H](CCC(N)=O)C(=O)N[C@@H](C)C(=O)N[C@@H](C)C(=O)NC(C)(C)C(=O)N[C@@H](CCC(=O)O)C(=O)N[C@@H](Cc1ccccc1)C(=O)N[C@H](C(=O)N[C@@H](CC(N)=O)C(=O)N[C@@H](Cc1c[nH]c2ccccc12)C(=O)N[C@@H](CC(C)C)C(=O)N[C@@H](CC(C)C)C(=O)N[C@@H](C)C(=O)NCC(=O)NCC(=O)N1CCC[C@H]1C(=O)N[C@@H](CO)C(=O)N[C@@H](CO)C(=O)NCC(=O)N[C@@H](C)C(=O)N1CCC[C@H]1C(=O)N1CCC[C@H]1C(=O)N1CCC[C@H]1C(=O)N[C@@H](CO)C(N)=O)C(C)C [Compound 28] (H-Y[Aib]EGTFTSDYSIYLEK([εLys-εLys-γGlu-C20 diacid])QAA[Aib]EFVNWLLAGGPSSGAPPPS-NH2; N-terminus assumed)
- EC50 [3]: 0.0023 nM
- half-life [4]: 111 h
- EC50 [5]: > 10 nM
- EC50 ([6]; CRE Luc 0% HSA EC50, 0% HSA): 0.005 nM
- EC50 ([6]; CRE Luc 1% HSA EC50, 1% HSA): 0.356 nM
- EC50 [7]: 0.026 nM
